Data reported in patent publication US10005756B2, “Pyrrolidinone derivatives as MetAP-2 inhibitors” (Merck Patent GmbH, priority 2014, dated 2018).
Where two headings read alike, the source gives them in different places.

System: human umbilical vein endothelial cells (HUVEC)
Assay: HUVEC proliferation quantified by BrdU incorporation
Type: cell-based
Settings: for IC50: read-out: IC50 HUVEC
Description: Determination of the Proliferation Inhibition by Inhibitors of Methionine Aminopeptidase 2 in the BrdU Proliferation Test (Cellular Assay)
After detachment of the cells by means of trypsin/EDTA, the number of living cells is determined, and the cells are sown in a density of 1000 cells per cavity in a total volume of 175 μl (cavities are coated in advance either with supplemented culture medium for 1-2 hours at 37° C. or with 1.5% gelatine for 0.5-2 hours at 37° C.). After cultivation for 24 hours, the test substances are added in various concentrations (for example final concentrations 30 μM to 0.03 nM in 10-fold dilution steps) and a volume of 25 μl. The DMSO concentration is kept constant at 0.3%. […] To this end, the cells are treated with a fixative for 30 min at room temperature and subsequently incubated with a peroxidase-labelled anti-BrdU antibody (diluted 1:100 in antibody dilution buffer) for 60 min at room temperature. […] The colour development is stopped after 15 min by addition of 25 μl of a 1M sulfuric acid solution. […] The controls used are cavities containing DMSO-treated cells (100% control) or empty cavities (blank value).
HUVEC Proliferation Quantified by BrdU Incorporation
HUVEC Means Human Umbilical Vein Endothelial Cells
HUVEC proliferation is measured after a 5 day incubation period using incorporation of BrdU as a measure of cell cycle activity. Cells are incubated in the presence or absence of test substances. During the last 18 to 24 hours of the incubation period BrdU is added to the medium. BrdU is incorporated into the DNA as the cells progress through S-phase (DNA synthesis) of the cell cycle. The cells are fixed and the amount of BrdU incorporated can be quantified using a commercial ELISA for detection of BrdU.
HUVEC are routinely cultured in EGM MV medium and used between passages 3 and 8.
All substances are run in triplicate.
Reference compounds are run in every assay.
Data is analyzed using the Assay Explorer program. Briefly, the blank is subtracted from all values, the triplicates are averaged and normalized to the untreated. EC50 is determined from a 4-parameter general sigmoidal curve (Hill fit y=(s0−slnf)/(1+(x/AC50)^nHill)+slnf) in Assay Explorer, Symyx). The processed data (EC50 or % Effect if no EC50 if reached, Efficacy) is uploaded directly from Assay Explorer to the MSRDB.

Row | SMILES | IC50 (HUVEC) | further results
1 | NC(=O)c1cc2cc(N3CC[C@@](O)(C(=O)NCc4cc(F)cc(F)c4)C3=O)ccc2[nH]1 (stereo in doubt) [Compound A86] | 0.071 µM | –
2 | Cc1nc(-c2cc3cc(N4CC[C@](O)(C(=O)NCc5cc(F)cc(Cl)c5)C4=O)ccc3[nH]2)no1 [Compound A11] | 0.024 µM | –
3 | CS(=N)(=O)c1ccc(N2CCC(O)(C(=O)NCc3cc(F)cc(Cl)c3)C2=O)cc1 (stereo not shown) [Compound A64, 3-hydroxy-1-(4-methanesulfoximinoyl-phenyl)-2-oxo-pyrrolidine-3-carboxylic acid 3-chloro-5-fluoro-benzylamide] | 6.1 µM | –
4 | O=C(NCc1cc(F)cc(Cl)c1)[C@@]1(O)CCN(c2cncnc2)C1=O [Compound A26] | 11 µM | –
5 | NCCCCNC(=O)c1cc2cc(N3CC[C@](O)(C(=O)NCc4cc(F)cc(Cl)c4)C3=O)ccc2[nH]1 [Compound A35] | 0.051 µM | –
6 | O=C(NCc1cc(F)cc(F)c1)[C@@]1(O)CCN(c2cnc3[nH]cc(Cl)c3c2)C1=O [Compound A79] | 0.0065 µM | –
7 | O=C(NCc1cc(F)cc(Cl)c1)C1(O)CCN(c2ccc(C(F)F)cc2)C1=O (stereo not shown) [Compound A60] | 1.8 µM | –
8 | NC(=O)CC[C@H](NC(=O)c1cc2cc(N3CC[C@](O)(C(=O)NCc4cc(F)cc(Cl)c4)C3=O)ccc2[nH]1)C(=O)N[C@@H](Cc1ccccc1)C(N)=O [Compound A52] | 4.4 µM | –
9 | O=C(NCc1cc(F)cc(Cl)c1)[C@@]1(O)CCN(c2cccc(S(=O)(=O)N3CCNCC3)c2)C1=O [Compound A1] | 1 µM | –
10 | CCNS(=O)(=O)c1ccc(N2CC[C@](O)(C(=O)NCc3cc(F)cc(Cl)c3)C2=O)cc1 [Compound A5] | 0.19 µM | –
11 | C[S@@](=N)(=O)c1cccc(N2CC[C@](O)(C(=O)NCc3cc(F)cc(Cl)c3)C2=O)c1 [Compound A82] | 0.31 µM | –
12 | C[C@H](c1ccccc1)N1CC[C@](O)(C(=O)NCc2cc(F)cc(Cl)c2)C1=O [Compound A2] | 7 µM | –
13 | O=C1Cc2cc(N3CC[C@](O)(C(=O)NCc4cc(F)cc(F)c4)C3=O)ccc2N1 [Compound A66] | 0.076 µM | –
14 | O=C(NCc1cc(F)cc(F)c1)[C@@]1(O)CCN(c2ccc3[nH]ncc3c2)C1=O [Compound A75, (S)-3-Hydroxy-1-(1H-indazol-5-yl)-2-oxo-pyrrolidine-3-carboxylic acid 3,5-difluoro-benzylamide] | 0.042 µM | –
15 | O=C(NCc1cc(F)cc(Cl)c1)C1(O)CCN(c2cccc(O)c2)C1=O (stereo not shown) [Compound A18] | 0.18 µM | –
16 | C[S@](=N)(=O)c1ccc(N2CC[C@](O)(C(=O)NCc3cc(F)cc(Cl)c3)C2=O)cc1 [Compound A70] | 0.7 µM | –
17 | O=C(NCc1cc(F)cc(Cl)c1)C1(O)CCN(c2ccc3[nH]c(-c4ccc(Cl)cc4)nc3c2)C1=O (stereo not shown) [Compound A25] | 1.3 µM | –
18 | O=C(NCc1cc(F)cc(Cl)c1)C1(O)C(=O)N(c2ccccc2)CC1O (stereo not shown) [Compound A13] | 2.5 µM | –
19 | CC(=O)Nc1cc2cc(N3CCC(O)(C(=O)NCc4cc(F)cc(Cl)c4)C3=O)ccc2oc1=O (stereo not shown) [Compound A17] | 1.1 µM | –
20 | O=C(NCc1cc(F)cc(F)c1)[C@@]1(O)CCN(c2cnc3[nH]cc(F)c3c2)C1=O [Compound A89] | 0.032 µM | –

Row | SMILES | IC50 (HUVEC) | further results
21 | O=C(NCc1cc(F)cc(Cl)c1)[C@@]1(O)CCN(c2ccc3c(c2)COB3O)C1=O [Compound A41] | 0.26 µM | –
22 | NC(=O)c1ccc2cc(N3CCC(O)(C(=O)NCc4cc(F)cc(Cl)c4)C3=O)ccc2n1 (stereo not shown) [Compound A83] | 0.5 µM | –
23 | O=C(NCc1cc(F)cc(F)c1)[C@@]1(O)CCN(c2cnc3[nH]ccc3c2)C1=O [Compound A78] | 0.035 µM | –
24 | O=C(NCc1cc(F)cc(Cl)c1)[C@@]1(O)CCN(c2cccc(OC(F)(F)F)c2)C1=O [Compound A67] | 0.29 µM | –
25 | CO[C@@H]1[C@H](OC(=O)NC(=O)CCl)CC[C@]2(CO2)[C@H]1[C@@]1(C)O[C@@H]1CC=C(C)C [MSC1902850A, TNP-470, reference compound] | – | EC50 (HUVEC, reference compounds run in every assay, expected value, read-out: expected value (EC50) of reference compound): 0.0008 µM
26 | C[S@](=N)(=O)c1cccc(N2CC[C@](O)(C(=O)NCc3cc(F)cc(Cl)c3)C2=O)c1 [Compound A81] | 0.54 µM | –
27 | O=C(NCc1cc(F)cc(Cl)c1)C1(O)CCN(c2ccc3oc(=O)ccc3c2)C1=O (stereo not shown) [Compound A16] | 3.5 µM | –
28 | Nc1ccc(N2CCC(O)(C(=O)NCc3cc(F)cc(Cl)c3)C2=O)cc1/C=C/C(=O)O (stereo not shown) [Compound A19] | 0.18 µM | –
29 | O=C(NCc1cc(F)cc(Cl)c1)[C@@]1(O)CCN(c2cnc3[nH]cc(I)c3c2)C1=O [Compound A34] | 0.0067 µM | –
30 | O=C(NCc1cc(F)cc(Cl)c1)[C@@]1(O)CCN(c2cnc3[nH]cc(Br)c3c2)C1=O [Compound A33] | 0.0054 µM | –
31 | NCCCNC(=O)c1cc2cc(N3CC[C@](O)(C(=O)NCc4cc(F)cc(Cl)c4)C3=O)ccc2[nH]1 [Compound A40] | 0.2 µM | –
32 | CN(C)C(=O)CNC(=O)[C@H](CCC(N)=O)NC(=O)c1cc2cc(N3CC[C@](O)(C(=O)NCc4cc(F)cc(Cl)c4)C3=O)ccc2[nH]1 [Compound A51] | 8.1 µM | –
33 | O=C(NCc1cc(F)cc(Cl)c1)C1(O)CCN(c2ccn[nH]2)C1=O (stereo not shown) [Compound A15] | 5.2 µM | –
34 | NCCCNC(=O)[C@H](CCC(N)=O)NC(=O)c1cc2cc(N3CC[C@](O)(C(=O)NCc4cc(F)cc(Cl)c4)C3=O)ccc2[nH]1 [Compound A50] | 3.5 µM | –
35 | NC(=O)CC[C@H](NC(=O)c1cc2cc(N3CC[C@](O)(C(=O)NCc4cc(F)cc(Cl)c4)C3=O)ccc2[nH]1)C(=O)O [Compound A39] | 3.1 µM | –
36 | C[S@@](=N)(=O)c1ccc(N2CC[C@](O)(C(=O)NCc3cc(F)cc(Cl)c3)C2=O)cc1 [Compound A69] | 0.3 µM | –
37 | CC(C)(C)OC(=O)C(CCC(N)=O)NC(=O)c1cc2cc(N3CC[C@](O)(C(=O)NCc4cc(F)cc(Cl)c4)C3=O)ccc2[nH]1 (stereo in doubt) [Compound A27] | 0.48 µM | –
38 | O=C(NCc1cc(F)cc(Cl)c1)C1(O)CCN(C(CO)c2ccccc2)C1=O (stereo not shown) [Compound A21] | 4.2 µM | –
39 | O=C(NCc1cc(F)cc(Cl)c1)C1(O)CCN(c2ccc3[nH]c(Br)cc3c2)C1=O (stereo not shown) [Compound A22] | 0.13 µM | –
40 | O=C(NCc1cc(F)cc(Cl)c1)C1(O)CCN(c2ccc(C(O)(C(F)(F)F)C(F)(F)F)cc2)C1=O (stereo not shown) [Compound A29] | 1.5 µM | –

Row | SMILES | IC50 (HUVEC) | further results
41 | CC(C)C(NC(=O)CN1CCC(O)(C(=O)NCc2cc(F)cc(Cl)c2)C1=O)C(=O)N(C)C (stereo not shown) [Compound A46] | 0.045 µM | –
42 | O=C(NCc1cc(F)cc(Cl)c1)C1=CCN(c2ccccc2)C1=O [Compound A12] | – | IC50 (HUVEC proliferation, BrdU incorporation): 3.3 µM
43 | N/C(=N\O)c1cc2cc(N3CC[C@](O)(C(=O)NCc4cc(F)cc(Cl)c4)C3=O)ccc2[nH]1 [Compound A6] | 0.03 µM | –
44 | O=C(NCc1cc(F)cc(Cl)c1)C1(O)CCN(c2ccc3c(c2)CS(=O)(=O)N3)C1=O (stereo not shown) [Compound A42] | 1.3 µM | –
45 | COc1ccc(CN2c3ccc(N4CCC(O)(C(=O)NCc5cc(F)cc(Cl)c5)C4=O)cc3CS2(=O)=O)cc1 (stereo not shown) [Compound A43] | 0.82 µM | –
46 | O=C(NCc1cc(F)cc(Cl)c1)[C@@]1(O)CCN(c2ccc3[nH]c(-c4nnco4)cc3c2)C1=O [Compound A9] | 0.014 µM | –
47 | O=C(NCc1cc(F)cc(Cl)c1)[C@@]1(O)CCN(c2ccc(OC(F)(F)F)cc2)C1=O [Compound A65] | 1.5 µM | –
48 | O=C(NCc1cc(F)cc(Cl)c1)[C@@]1(O)CCN(c2cnc3[nH]c(Cl)c(Cl)c3c2)C1=O [Compound A62] | 0.18 µM | –
49 | O=C(NCc1cc(F)cc(Cl)c1)C1(O)CCN(c2ccc3c(c2)CS(=O)(=O)C3)C1=O (stereo not shown) [Compound A28] | 0.53 µM | –
50 | O=C(NCc1cc(F)cc(Cl)c1)C1(O)CCN(c2ccc3c(c2)CC(C2CC2)N3)C1=O (stereo not shown) [Compound A47] | 0.04 µM | –
51 | Cc1nnc(-c2cc3cc(N4CC[C@](O)(C(=O)NCc5cc(F)cc(Cl)c5)C4=O)ccc3[nH]2)o1 [Compound A8] | 0.017 µM | –
52 | C[C@@H](c1ccccc1)N1CC[C@](O)(C(=O)NCc2cc(F)cc(Cl)c2)C1=O [Compound A3] | 0.73 µM | –
53 | COc1ccc(Cn2ccc3cc(N4CC[C@](O)(C(=O)NCc5cc(F)cc(F)c5)C4=O)cnc32)cc1 [Compound A76] | 0.26 µM | –
54 | CS(=N)(=O)c1cccc(N2CCC(O)(C(=O)NCc3cc(F)cc(Cl)c3)C2=O)c1 (stereo not shown) [Compound A71] | 1.4 µM | –
55 | O=C(NCc1cc(F)cc(Cl)c1)C1(O)CCN(c2ccc3c(c2)CCOB3O)C1=O (stereo not shown) [Compound A74] | 0.014 µM | –
56 | O=C(NCc1cc(F)cc(Cl)c1)[C@@]1(O)CCN(c2cnc3[nH]cc(F)c3c2)C1=O [Compound A53] | 0.039 µM | –
57 | O=C(NCc1cc(F)cc(Cl)c1)[C@@]1(O)C(=O)N(c2ccccc2)C[C@@H]1O [Compound A87] | 2.3 µM | –
58 | O=CNCCCCNC(=O)c1cc2cc(N3CC[C@](O)(C(=O)NCc4cc(F)cc(Cl)c4)C3=O)ccc2[nH]1 [Compound A68] | 0.11 µM | –
